US20190374627A1, “TARGET PEPTIDES FOR CANCER THERAPY AND DIAGNOSTICS” (priority 2016, published 2019)
Square brackets hold non-standard residues; d marks the D form. Ends that are not written are not given here. pT = C[C@@H](OP(=O)(O)O)[C@H](N)C(=O)O; pS = N[C@@H](COP(=O)(O)O)C(=O)O

Tests used:
[1] = tested on: unexpanded lymphocyte cultures (CD8^+ T cells); assay: ICS for MHC-I-pP reactivity of lymphocyte cultures without expansion (Table 23, No Expansion); settings: HH6
[2] = tested on: expanded TIL / IHL cultures; assay: ICS for MHC-I-pP reactivity of liver-derived lymphocyte cultures after unspecific rapid expansion protocol (REP); format: cell-based, human
[3] = tested on: expanded lymphocyte cultures from deceased donor livers, cirrhotic livers and HCC; assay: ICS for MHC-I-pP reactivity of liver-derived lymphocyte cultures after phosphopeptide-specific expansion; format: cell-based, human; settings: for ppCTL response, Deceased Donor Liver Do 2 / ppCTL response, Deceased Donor Liver Do 3 / ppCTL response, Deceased Donor Liver Do 4 / ppCTL response, Deceased Donor Liver Do 6 / ppCTL response, End-stage Liver Cirrhosis IHL 11 / ppCTL response, End-stage Liver Cirrhosis IHL 12 / ppCTL response, End-stage Liver Cirrhosis IHL 13 / ppCTL response, End-stage Liver Cirrhosis IHL 15 / ppCTL response, HCC Distal HCC 1 / ppCTL response, HCC Tumor HCC 1 / ppCTL response, HCC Distal HCC 4 / ppCTL response, HCC Distal HCC 9 / ppCTL response, HCC Tumor HCC 9 / ppCTL response, HCC Distal HCC 12: pP-specifically expanded culture; for ppCTL response, HCC Distal HCC 1: HCC 1 Distal; for ppCTL response, HCC Tumor HCC 1: HCC 1 Tumor; for ppCTL response, HCC Distal HCC 4: HCC 4 Distal; for ppCTL response, HCC Distal HCC 9: HCC 9 Distal; for ppCTL response, HCC Tumor HCC 9: HCC 9 Tumor; for ppCTL response, HCC Distal HCC 12: HCC 12 Distal
[4] = tested on: CD8^+ T cells (PBMCs); assay: Intracellular cytokine staining (ICS) of PBMCs after 7 days of stimulation with MHC-I-pP (healthy donors, HH patients); format: cell-based, human; settings: for Reactive CD8^+ T cell population, HH2: HH patient HH2; for Reactive CD8^+ T cell population, HH3: HH patient HH3; for Reactive CD8^+ T cell population, HH6: HH patient HH6; for Reactive CD8^+ T cell population, HH8: HH patient HH8; for Reactive CD8^+ T cell population, HD1: Healthy donor HD1; for Reactive CD8^+ T cell population, HD4: Healthy donor HD4; for Reactive CD8^+ T cell population, HD5: Healthy donor HD5; for Reactive CD8^+ T cell population, HH11: HH patient HH11
Description: From this, CD8^+ T cell responses against newly identified MHC class I-associated phosphopeptides in healthy individuals and patients with chronic liver disease were investigated. Twenty-one of the newly identified HCC-associated HLA-A*0201-restricted phosphopeptides were selected (see Table 17) for further immunological testing in HLA-A*0201 positive patients. MHC-I-pP-specific cytotoxic CD8^+ T cell responses (ppCTL) were assessed using intracellular cytokine staining (ICS) and several cytokines and surface markers were assessed in parallel. After 7 days of stimulation with the respective MHC-I-pP and no other cytokines, CD3- and CD8-expressing T cells were stained for at least two different cytokines (IFN-γ, TNF-α) and when required CD107a expression as a marker for their cytotoxic potential.
First, peripheral blood mononuclear cells (PBMCs) from healthy donors and patients with hereditary hemochromatosis (HH) were analyzed. HH is a chronic liver disease characterized by excessive intestinal absorption of dietary iron resulting in a pathological deposition of iron in the liver. PBMCs or lymphocytes from liver tissue were extracted and specifically stimulated with (phospho-) peptides for 7 days before intracellular cytokine staining (ICS). Doublets and dead cells, using a fixable viability dye, were excluded. Lymphocytes were gated on CD3^+ and CD8^+ double positive cells and were analysed for expression of IFNγ, TNFα-, and CD107a.

AVVsPPALHNA: BRD4 phosphopeptide, HLA-A*0201 (AVV[pS]PPALHNA; listed as Homo sapiens)
2 (2.5-5.0% reactive CD8^-+ T cells): Reactive CD8^+ T cells, No Expansion, HH6 [1] | Reactive CD8^+ T cells, pP-specific Expansion, HH6 [3] | Reactive CD8^+ T cell population, HH6 [4]
0 (<0.25% reactive CD8-+ T cells): ppCTL response, Deceased Donor Liver Do 2 [3] | ppCTL response, Deceased Donor Liver Do 3 [3] | ppCTL response, Deceased Donor Liver Do 4 [3] | ppCTL response, Deceased Donor Liver Do 6 [3] | ppCTL response, End-stage Liver Cirrhosis IHL 11 [3] | ppCTL response, End-stage Liver Cirrhosis IHL 12 [3] | ppCTL response, End-stage Liver Cirrhosis IHL 13 [3] | ppCTL response, End-stage Liver Cirrhosis IHL 15 [3] | ppCTL response, HCC Distal HCC 1 [3] | ppCTL response, HCC Tumor HCC 1 [3] | ppCTL response, HCC Distal HCC 4 [3] | ppCTL response, HCC Distal HCC 9 [3] | ppCTL response, HCC Distal HCC 12 [3]
0 (<0.25% reactive CD8^-+ T cells): Reactive CD8^+ T cells, Non-specific Expansion, Do2 [2] | Reactive CD8^+ T cells, Non-specific Expansion, Do4 [2] | Reactive CD8^+ T cells, Non-specific Expansion, HH6 [2] | Reactive CD8^+ T cells, pP-specific Expansion, Do2 [3] | Reactive CD8^+ T cells, pP-specific Expansion, Do4 [3] | Reactive CD8^+ T cell population, HH2 [4] | Reactive CD8^+ T cell population, HH3 [4] | Reactive CD8^+ T cell population, HH8 [4] | Reactive CD8^+ T cell population, HD1 [4] | Reactive CD8^+ T cell population, HD4 [4] | Reactive CD8^+ T cell population, HD5 [4]
1 (0.25-2.5% reactive CD8-+ T cells): ppCTL response, HCC Tumor HCC 9 [3]

FLDtPIAKV: NKD1 phosphopeptide, HLA-A*0201 (FLD[pT]PIAKV; listed as Homo sapiens)
2 (2.5-5.0% reactive CD8^-+ T cells): Reactive CD8^+ T cells, pP-specific Expansion, HH6 [3]
1 (0.25-2.5% reactive CD8^-+ T cells): Reactive CD8^+ T cells, Non-specific Expansion, Do2 [2]
0 (<0.25% reactive CD8-+ T cells): ppCTL response, Deceased Donor Liver Do 2 [3] | ppCTL response, Deceased Donor Liver Do 3 [3] | ppCTL response, Deceased Donor Liver Do 4 [3] | ppCTL response, Deceased Donor Liver Do 6 [3] | ppCTL response, End-stage Liver Cirrhosis IHL 11 [3] | ppCTL response, End-stage Liver Cirrhosis IHL 12 [3] | ppCTL response, End-stage Liver Cirrhosis IHL 13 [3] | ppCTL response, End-stage Liver Cirrhosis IHL 15 [3] | ppCTL response, HCC Distal HCC 1 [3] | ppCTL response, HCC Tumor HCC 1 [3] | ppCTL response, HCC Distal HCC 4 [3] | ppCTL response, HCC Distal HCC 9 [3] | ppCTL response, HCC Tumor HCC 9 [3] | ppCTL response, HCC Distal HCC 12 [3]
0 (<0.25% reactive CD8^-+ T cells): Reactive CD8^+ T cells, No Expansion, HH6 [1] | Reactive CD8^+ T cells, Non-specific Expansion, Do4 [2] | Reactive CD8^+ T cells, Non-specific Expansion, HH6 [2] | Reactive CD8^+ T cells, pP-specific Expansion, Do2 [3] | Reactive CD8^+ T cells, pP-specific Expansion, Do4 [3] | Reactive CD8^+ T cell population, HH2 [4] | Reactive CD8^+ T cell population, HH3 [4] | Reactive CD8^+ T cell population, HH6 [4] | Reactive CD8^+ T cell population, HH8 [4] | Reactive CD8^+ T cell population, HH11 [4] | Reactive CD8^+ T cell population, HD1 [4] | Reactive CD8^+ T cell population, HD4 [4] | Reactive CD8^+ T cell population, HD5 [4]

KAFsPVRSV: ID2 phosphopeptide, HLA-A*0201 (KAF[pS]PVRSV; listed as Homo sapiens)
0 (<0.25% reactive CD8-+ T cells): ppCTL response, Deceased Donor Liver Do 3 [3] | ppCTL response, Deceased Donor Liver Do 4 [3] | ppCTL response, Deceased Donor Liver Do 6 [3] | ppCTL response, End-stage Liver Cirrhosis IHL 11 [3] | ppCTL response, End-stage Liver Cirrhosis IHL 12 [3] | ppCTL response, End-stage Liver Cirrhosis IHL 13 [3] | ppCTL response, End-stage Liver Cirrhosis IHL 15 [3] | ppCTL response, HCC Distal HCC 1 [3] | ppCTL response, HCC Tumor HCC 1 [3] | ppCTL response, HCC Distal HCC 4 [3] | ppCTL response, HCC Distal HCC 9 [3] | ppCTL response, HCC Tumor HCC 9 [3] | ppCTL response, HCC Distal HCC 12 [3]
1 (0.25-2.5% reactive CD8-+ T cells): ppCTL response, Deceased Donor Liver Do 2 [3]
0 (<0.25% reactive CD8^-+ T cells): Reactive CD8^+ T cells, No Expansion, HH6 [1] | Reactive CD8^+ T cells, Non-specific Expansion, Do2 [2] | Reactive CD8^+ T cells, Non-specific Expansion, Do4 [2] | Reactive CD8^+ T cells, Non-specific Expansion, HH6 [2] | Reactive CD8^+ T cells, pP-specific Expansion, Do2 [3] | Reactive CD8^+ T cells, pP-specific Expansion, Do4 [3] | Reactive CD8^+ T cells, pP-specific Expansion, HH6 [3] | Reactive CD8^+ T cell population, HH2 [4] | Reactive CD8^+ T cell population, HH3 [4] | Reactive CD8^+ T cell population, HH6 [4] | Reactive CD8^+ T cell population, HH8 [4] | Reactive CD8^+ T cell population, HH11 [4] | Reactive CD8^+ T cell population, HD1 [4] | Reactive CD8^+ T cell population, HD4 [4] | Reactive CD8^+ T cell population, HD5 [4]

KIAsEIAQL: CASKIN2 phosphopeptide, HLA-A*0201 (KIA[pS]EIAQL; listed as Homo sapiens)
1 (0.25-2.5% reactive CD8^-+ T cells): Reactive CD8^+ T cells, No Expansion, HH6 [1] | Reactive CD8^+ T cells, Non-specific Expansion, Do2 [2] | Reactive CD8^+ T cells, Non-specific Expansion, HH6 [2] | Reactive CD8^+ T cell population, HH6 [4]
1 (0.25-2.5% reactive CD8-+ T cells): ppCTL response, Deceased Donor Liver Do 4 [3] | ppCTL response, Deceased Donor Liver Do 6 [3]
0 (<0.25% reactive CD8-+ T cells): ppCTL response, Deceased Donor Liver Do 2 [3] | ppCTL response, Deceased Donor Liver Do 3 [3] | ppCTL response, End-stage Liver Cirrhosis IHL 11 [3] | ppCTL response, End-stage Liver Cirrhosis IHL 12 [3] | ppCTL response, End-stage Liver Cirrhosis IHL 13 [3] | ppCTL response, End-stage Liver Cirrhosis IHL 15 [3] | ppCTL response, HCC Distal HCC 1 [3] | ppCTL response, HCC Tumor HCC 1 [3] | ppCTL response, HCC Distal HCC 4 [3] | ppCTL response, HCC Distal HCC 9 [3] | ppCTL response, HCC Tumor HCC 9 [3] | ppCTL response, HCC Distal HCC 12 [3]
0 (<0.25% reactive CD8^-+ T cells): Reactive CD8^+ T cells, Non-specific Expansion, Do4 [2] | Reactive CD8^+ T cells, pP-specific Expansion, Do2 [3] | Reactive CD8^+ T cells, pP-specific Expansion, Do4 [3] | Reactive CD8^+ T cells, pP-specific Expansion, HH6 [3] | Reactive CD8^+ T cell population, HH2 [4] | Reactive CD8^+ T cell population, HH3 [4] | Reactive CD8^+ T cell population, HH8 [4] | Reactive CD8^+ T cell population, HD1 [4] | Reactive CD8^+ T cell population, HD4 [4] | Reactive CD8^+ T cell population, HD5 [4]
